Data: ChEMBL document CHEMBL5108051, “Improving the Antimicrobial Performance of Amphiphilic Cationic Antimicrobial Peptides Using Glutamic Acid Full-Scan and Positive Charge Compensation Strategies” (J Med Chem, 2022)
Values after ≈ are worked out from the molar mass of the structure shown. Square brackets hold non-standard residues; d marks the D form. Peptide text beside a SMILES is read from it. ξ: configuration not given here. ξK = NCCCCC(N)C(=O)O

What was measured:
Escherichia coli = assay: Antibacterial activity against Escherichia coli ATCC 25922 assessed as growth inhibition measured after 18 to 24 hrs by CLSI based broth microdilution method; format: functional; settings: time 18-24 hrs
Klebsiella pneumoniae = assay: Antibacterial activity against Klebsiella pneumoniae ATCC 700603 assessed as growth inhibition measured after 18 to 24 hrs by CLSI based broth microdilution method; format: functional; settings: time 18-24 hrs
Pseudomonas aeruginosa = assay: Antibacterial activity against Pseudomonas aeruginosa ATCC 27853 assessed as growth inhibition measured after 18 to 24 hrs by CLSI based broth microdilution method; format: functional; settings: time 18-24 hrs
Staphylococcus aureus = assay: Antibacterial activity against Staphylococcus aureus ATCC 25923 assessed as growth inhibition measured after 18 to 24 hrs by CLSI based broth microdilution method; format: functional; settings: time 18-24 hrs
Bacillus subtilis = assay: Antibacterial activity against Bacillus subtilis ATCC 23857 assessed as growth inhibition measured after 18 to 24 hrs by CLSI based broth microdilution method; format: functional; settings: time 18-24 hrs
Erythrocyte = assay: Hemolytic activity against mouse RBC measured after 1 hrs; format: toxicity, cell-based

Row | MIC (Escherichia coli) | MIC (Klebsiella pneumoniae) | MIC (Pseudomonas aeruginosa) | MIC (Staphylococcus aureus) | MIC (Bacillus subtilis) | Structure (SMILES) | MHC10 (Erythrocyte)
1 | > 128 µM | > 128 µM | > 128 µM | > 128 µM | > 128 µM | CC[C@H](C)[C@H](NC(=O)[C@@H]1CCCN1C(=O)[C@H](CC(C)C)NC(=O)[C@@H](N)CCC(=O)O)C(=O)N[C@H](C(=O)N[C@@H](C)C(=O)N[C@@H](CCCCN)C(=O)N[C@@H](CC(C)C)C(=O)N[C@@H](CC(C)C)C(=O)N[C@@H](CO)C(=O)NCC(=O)N[C@@H](CC(C)C)C(=O)N[C@@H](CC(C)C)C(N)=O)C(C)C (H-ELPIVAKLLSGLL-NH2) | > 256 µM
2 | > 128 µM | > 128 µM | > 128 µM | > 128 µM | > 128 µM | CC[C@H](C)[C@H](NC(=O)[C@@H]1CCCN1C(=O)[C@H](CCC(=O)O)NC(=O)[C@@H](N)Cc1ccccc1)C(=O)N[C@H](C(=O)N[C@@H](C)C(=O)N[C@@H](CCCCN)C(=O)N[C@@H](CC(C)C)C(=O)N[C@@H](CC(C)C)C(=O)N[C@@H](CO)C(=O)NCC(=O)N[C@@H](CC(C)C)C(=O)N[C@@H](CC(C)C)C(N)=O)C(C)C (H-FEPIVAKLLSGLL-NH2) | > 256 µM
3 | > 128 µM | > 128 µM | > 128 µM | 16 µM (≈ 22.6 µg/mL) | 16 µM (≈ 22.6 µg/mL) | CC[C@H](C)[C@H](NC(=O)[C@H](CCC(=O)O)NC(=O)[C@H](CC(C)C)NC(=O)[C@@H](N)Cc1ccccc1)C(=O)N[C@H](C(=O)N[C@@H](C)C(=O)N[C@@H](CCCCN)C(=O)N[C@@H](CC(C)C)C(=O)N[C@@H](CC(C)C)C(=O)N[C@@H](CO)C(=O)NCC(=O)N[C@@H](CC(C)C)C(=O)N[C@@H](CC(C)C)C(N)=O)C(C)C (H-FLEIVAKLLSGLL-NH2) | 16.06 µM
4 | 64 µM (≈ 89.5 µg/mL) | > 128 µM | > 128 µM | > 128 µM | > 128 µM | CC(C)C[C@H](NC(=O)[C@H](CC(C)C)NC(=O)CNC(=O)[C@H](CO)NC(=O)[C@H](CC(C)C)NC(=O)[C@H](CC(C)C)NC(=O)[C@H](CCCCN)NC(=O)[C@H](C)NC(=O)[C@@H](NC(=O)[C@H](CCC(=O)O)NC(=O)[C@@H]1CCCN1C(=O)[C@H](CC(C)C)NC(=O)[C@@H](N)Cc1ccccc1)C(C)C)C(N)=O (H-FLPEVAKLLSGLL-NH2) | > 256 µM
5 | > 128 µM | > 128 µM | > 128 µM | > 128 µM | > 128 µM | CC[C@H](C)[C@H](NC(=O)[C@@H]1CCCN1C(=O)[C@H](CC(C)C)NC(=O)[C@@H](N)Cc1ccccc1)C(=O)N[C@@H](CCC(=O)O)C(=O)N[C@@H](C)C(=O)N[C@@H](CCCCN)C(=O)N[C@@H](CC(C)C)C(=O)N[C@@H](CC(C)C)C(=O)N[C@@H](CO)C(=O)NCC(=O)N[C@@H](CC(C)C)C(=O)N[C@@H](CC(C)C)C(N)=O (H-FLPIEAKLLSGLL-NH2) | > 256 µM
6 | > 128 µM | > 128 µM | > 128 µM | > 128 µM | > 128 µM | CC[C@H](C)[C@H](NC(=O)[C@@H]1CCCN1C(=O)[C@H](CC(C)C)NC(=O)[C@@H](N)Cc1ccccc1)C(=O)N[C@H](C(=O)N[C@@H](C)C(=O)N[C@@H](CCC(=O)O)C(=O)N[C@@H](CC(C)C)C(=O)N[C@@H](CC(C)C)C(=O)N[C@@H](CO)C(=O)NCC(=O)N[C@@H](CC(C)C)C(=O)N[C@@H](CC(C)C)C(N)=O)C(C)C (H-FLPIVAELLSGLL-NH2) | > 256 µM
7 | > 128 µM | > 128 µM | > 128 µM | > 128 µM | > 128 µM | CC[C@H](C)[C@H](NC(=O)[C@@H]1CCCN1C(=O)[C@H](CC(C)C)NC(=O)[C@@H](N)Cc1ccccc1)C(=O)N[C@H](C(=O)N[C@@H](C)C(=O)N[C@@H](CCCCN)C(=O)N[C@@H](CCC(=O)O)C(=O)N[C@@H](CC(C)C)C(=O)N[C@@H](CO)C(=O)NCC(=O)N[C@@H](CC(C)C)C(=O)N[C@@H](CC(C)C)C(N)=O)C(C)C (H-FLPIVAKELSGLL-NH2) | > 256 µM
8 | > 128 µM | > 128 µM | > 128 µM | > 128 µM | > 128 µM | CC[C@H](C)[C@H](NC(=O)[C@@H]1CCCN1C(=O)[C@H](CC(C)C)NC(=O)[C@@H](N)Cc1ccccc1)C(=O)N[C@H](C(=O)N[C@@H](C)C(=O)N[C@@H](CCCCN)C(=O)N[C@@H](CC(C)C)C(=O)N[C@@H](CCC(=O)O)C(=O)N[C@@H](CO)C(=O)NCC(=O)N[C@@H](CC(C)C)C(=O)N[C@@H](CC(C)C)C(N)=O)C(C)C (H-FLPIVAKLESGLL-NH2) | > 256 µM
9 | > 128 µM | > 128 µM | > 128 µM | 16 µM (≈ 22.8 µg/mL) | 16 µM (≈ 22.8 µg/mL) | CC[C@H](C)[C@H](NC(=O)[C@@H]1CCCN1C(=O)[C@H](CC(C)C)NC(=O)[C@@H](N)Cc1ccccc1)C(=O)N[C@H](C(=O)N[C@@H](C)C(=O)N[C@@H](CCCCN)C(=O)N[C@@H](CC(C)C)C(=O)N[C@@H](CC(C)C)C(=O)N[C@@H](CCC(=O)O)C(=O)NCC(=O)N[C@@H](CC(C)C)C(=O)N[C@@H](CC(C)C)C(N)=O)C(C)C (H-FLPIVAKLLEGLL-NH2) | 69.93 µM
10 | > 128 µM | > 128 µM | > 128 µM | 8 µM (≈ 11.4 µg/mL) | 4 µM (≈ 5.7 µg/mL) | CC[C@H](C)[C@H](NC(=O)[C@@H]1CCCN1C(=O)[C@H](CC(C)C)NC(=O)[C@@H](N)Cc1ccccc1)C(=O)N[C@H](C(=O)N[C@@H](C)C(=O)N[C@@H](CCCCN)C(=O)N[C@@H](CC(C)C)C(=O)N[C@@H](CC(C)C)C(=O)N[C@@H](CCCCN)C(=O)NCC(=O)N[C@@H](CC(C)C)C(=O)N[C@@H](CC(C)C)C(N)=O)C(C)C (H-FLPIVAKLLKGLL-NH2) | 27.66 µM
11 | > 128 µM | > 128 µM | > 128 µM | 16 µM (≈ 23.3 µg/mL) | 8 µM (≈ 11.6 µg/mL) | CC[C@H](C)[C@H](NC(=O)[C@@H]1CCCN1C(=O)[C@H](CC(C)C)NC(=O)[C@@H](N)Cc1ccccc1)C(=O)N[C@H](C(=O)N[C@@H](C)C(=O)N[C@@H](CCCCN)C(=O)N[C@@H](CC(C)C)C(=O)N[C@@H](CC(C)C)C(=O)N[C@@H](CO)C(=O)N[C@@H](CCC(=O)O)C(=O)N[C@@H](CC(C)C)C(=O)N[C@@H](CC(C)C)C(N)=O)C(C)C (H-FLPIVAKLLSELL-NH2) | 73.97 µM
12 | > 128 µM | > 128 µM | > 128 µM | > 128 µM | > 128 µM | CC[C@H](C)[C@H](NC(=O)[C@@H]1CCCN1C(=O)[C@H](CC(C)C)NC(=O)[C@@H](N)Cc1ccccc1)C(=O)N[C@H](C(=O)N[C@@H](C)C(=O)N[C@@H](CCCCN)C(=O)N[C@@H](CC(C)C)C(=O)N[C@@H](CC(C)C)C(=O)N[C@@H](CO)C(=O)NCC(=O)N[C@@H](CCC(=O)O)C(=O)N[C@@H](CC(C)C)C(N)=O)C(C)C (H-FLPIVAKLLSGEL-NH2) | > 256 µM
13 | > 128 µM | > 128 µM | > 128 µM | > 128 µM | > 128 µM | CC[C@H](C)[C@H](NC(=O)[C@@H]1CCCN1C(=O)[C@H](CC(C)C)NC(=O)[C@@H](N)Cc1ccccc1)C(=O)N[C@H](C(=O)N[C@@H](C)C(=O)N[C@@H](CCCCN)C(=O)N[C@@H](CC(C)C)C(=O)N[C@@H](CC(C)C)C(=O)N[C@@H](CO)C(=O)NCC(=O)N[C@@H](CC(C)C)C(=O)N[C@@H](CCC(=O)O)C(N)=O)C(C)C (H-FLPIVAKLLSGLE-NH2) | > 256 µM
14 | 64 µM (≈ 92.2 µg/mL) | > 128 µM | > 128 µM | > 128 µM | > 128 µM | CC[C@H](C)[C@H](NC(=O)[C@@H]1CCCN1C(=O)[C@H](CC(C)C)NC(=O)[C@@H](N)Cc1ccccc1)C(=O)N[C@H](C(=O)N[C@@H](CCC(=O)O)C(=O)N[C@@H](CCCCN)C(=O)N[C@@H](CC(C)C)C(=O)N[C@@H](CC(C)C)C(=O)N[C@@H](CO)C(=O)NCC(=O)N[C@@H](CC(C)C)C(=O)N[C@@H](CC(C)C)C(N)=O)C(C)C (H-FLPIVEKLLSGLL-NH2) | > 256 µM
15 | 16 µM (≈ 24 µg/mL) | 64 µM (≈ 95.8 µg/mL) | 32 µM (≈ 47.9 µg/mL) | 128 µM (≈ 192 µg/mL) | 128 µM (≈ 192 µg/mL) | CC(C)C[C@H](NC(=O)[C@H](CC(C)C)NC(=O)CNC(=O)[C@H](CCC(=O)O)NC(=O)[C@H](CC(C)C)NC(=O)[C@H](CC(C)C)NC(=O)[C@H](CCCCN)NC(=O)[C@H](CCCCN)NC(=O)[C@@H](NC(=O)[C@H](CCCCN)NC(=O)[C@@H]1CCCN1C(=O)[C@H](CC(C)C)NC(=O)[C@@H](N)Cc1ccccc1)C(C)C)C(N)=O (H-FLPKVKKLLEGLL-NH2) | > 256 µM
16 | 8 µM (≈ 12.5 µg/mL) | 16 µM (≈ 25.1 µg/mL) | 16 µM (≈ 25.1 µg/mL) | 32 µM (≈ 50.2 µg/mL) | 32 µM (≈ 50.2 µg/mL) | CC(C)C[C@H](NC(=O)[C@H](CC(C)C)NC(=O)C(CCCCN)NC(=O)[C@H](CCC(=O)O)NC(=O)[C@H](CC(C)C)NC(=O)[C@H](CC(C)C)NC(=O)[C@H](CCCCN)NC(=O)[C@H](CCCCN)NC(=O)[C@@H](NC(=O)[C@H](CCCCN)NC(=O)[C@@H]1CCCN1C(=O)[C@H](CC(C)C)NC(=O)[C@@H](N)Cc1ccccc1)C(C)C)C(N)=O (some centres not stated) (H-FLPKVKKLLE[ξK]LL-NH2) | > 256 µM
17 | 16 µM (≈ 25.1 µg/mL) | 16 µM (≈ 25.1 µg/mL) | 16 µM (≈ 25.1 µg/mL) | 32 µM (≈ 50.2 µg/mL) | 8 µM (≈ 12.5 µg/mL) | CC(C)C[C@H](NC(=O)[C@H](CC(C)C)NC(=O)[C@H](CCC(=O)O)NC(=O)[C@H](CCCCN)NC(=O)[C@H](CC(C)C)NC(=O)[C@H](CC(C)C)NC(=O)[C@H](CCCCN)NC(=O)[C@H](CCCCN)NC(=O)[C@@H](NC(=O)[C@H](CCCCN)NC(=O)[C@@H]1CCCN1C(=O)[C@H](CC(C)C)NC(=O)[C@@H](N)Cc1ccccc1)C(C)C)C(N)=O (H-FLPKVKKLLKELL-NH2) | > 256 µM
